Reference: patent publication US8822451B2, “Modulators of ATP-binding cassette transporters” (Vertex Pharmaceuticals Incorporated, priority 2005, dated 2014)

Target: T1, […]F508-CFTR (Homo sapiens, UniProt P13569, DEL508-508)
T1 construct: expressed in transfected cells
Assay: Assay results of Table 3: ΔF508-CFTR modulation, membrane potential optical assay (assay format not stated)
Type: cell-based
Settings: NIH3T3 mouse fibroblasts stably expressing […]F508-CFTR (optical assays); for Efficacy: efficacy range; for EC50: potency range
From the text: A. Membrane Potential Optical Methods for Assaying […]F508-CFTR Modulation Properties of Compounds
The optical membrane potential assay utilized voltage-sensitive FRET sensors described by Gonzalez and Tsien (See, Gonzalez, J. E. and R. Y. Tsien (1995) “Voltage sensing by fluorescence resonance energy transfer in single cells” Biophys J 69(4): 1272-80, and Gonzalez, J. E. and R. Y. Tsien (1997) “Improved indicators of cell membrane potential that use fluorescence resonance energy transfer” Chem Biol 4(4): 269-77) in combination with instrumentation for measuring fluorescence changes such as the Voltage/Ion Probe Reader (VIPR) (See, Gonzalez, J. E., K. Oades, et al. (1999) “Cell-based assays and instrumentation for screening ion-channel targets” Drug Discov Today 4(9): 431-439).
These voltage sensitive assays are based on the change in fluorescence resonant energy transfer (FRET) between the membrane-soluble, voltage-sensitive dye, DiSBAC2(3), and a fluorescent phospholipid, CC2-DMPE, which is attached to the outer leaflet of the plasma membrane and acts as a FRET donor. Changes in membrane potential (Vm) cause the negatively charged DiSBAC2(3) to redistribute across the plasma membrane and the amount of energy transfer from CC2-DMPE changes accordingly. The changes in fluorescence emission were monitored using VIPR™ II, which is an integrated liquid handler and fluorescent detector designed to conduct cell-based screens in 96- or 384-well microtiter plates.
To identify small molecules that correct the trafficking defect associated with ΔF508-CFTR; a single-addition HTS assay format was developed. The cells were incubated in serum-free medium for 16 hrs at 37° C. in the presence or absence (negative control) of test compound. As a positive control, cells plated in 384-well plates were incubated for 16 hrs at 27° C. to “temperature-correct” […]F508-CFTR. The cells were subsequently rinsed 3× with Krebs Ringers solution and loaded with the voltage-sensitive dyes. To activate […]F508-CFTR, 10 µM forskolin and the CFTR potentiator, genistein (20 µM), were added along with Cl^−-free medium to each well. The addition of Cl^−-free medium promoted Cl^− efflux in response to […]F508-CFTR activation and the resulting membrane depolarization was optically monitored using the FRET-based voltage-sensor dyes.
To identify potentiators of […]F508-CFTR, a double-addition HTS assay format was developed. During the first addition, a Cl^−-free medium with or without test compound was added to each well. After 22 sec, a second addition of Cl^−-free medium containing 2-10 µM forskolin was added to activate […]F508-CFTR. The extracellular Cl^− concentration following both additions was 28 mM, which promoted Cl^− efflux in response to […]F508-CFTR activation and the resulting membrane depolarization was optically monitored using the FRET-based voltage-sensor dyes.
Bath Solution #1: (in mM) NaCl 160, KCl 4.5, CaCl2 2, MgCl2 1, HEPES 10, pH 7.4 with NaOH.
Chloride-free bath solution: Chloride salts in Bath Solution #1 are substituted with gluconate salts.
CC2-DMPE: Prepared as a 10 mM stock solution in DMSO and stored at −20° C.
DiSBAC2(3): Prepared as a 10 mM stock in DMSO and stored at −20° C.
NIH3T3 mouse fibroblasts stably expressing […]F508-CFTR are used for optical measurements of membrane potential. The cells are maintained at 37° C. in 5% CO2 and 90% humidity in Dulbecco's modified Eagle's medium supplemented with 2 mM glutamine, 10% fetal bovine serum, 1× NEAA, […]-ME, 1× pen/strep, and 25 mM HEPES in 175 cm^2 culture flasks. For all optical assays, the cells were seeded at 30,000/well in 384-well matrigel-coated plates and cultured for 2 hrs at 37° C. before culturing at 27° C. for 24 hrs for the potentiator assay. For the correction assays, the cells are cultured at 27° C. or 37° C. with and without compounds for 16-24 hoursB.

T1 sequence (P13569 with tags, fused parts or gaps DEL508-508): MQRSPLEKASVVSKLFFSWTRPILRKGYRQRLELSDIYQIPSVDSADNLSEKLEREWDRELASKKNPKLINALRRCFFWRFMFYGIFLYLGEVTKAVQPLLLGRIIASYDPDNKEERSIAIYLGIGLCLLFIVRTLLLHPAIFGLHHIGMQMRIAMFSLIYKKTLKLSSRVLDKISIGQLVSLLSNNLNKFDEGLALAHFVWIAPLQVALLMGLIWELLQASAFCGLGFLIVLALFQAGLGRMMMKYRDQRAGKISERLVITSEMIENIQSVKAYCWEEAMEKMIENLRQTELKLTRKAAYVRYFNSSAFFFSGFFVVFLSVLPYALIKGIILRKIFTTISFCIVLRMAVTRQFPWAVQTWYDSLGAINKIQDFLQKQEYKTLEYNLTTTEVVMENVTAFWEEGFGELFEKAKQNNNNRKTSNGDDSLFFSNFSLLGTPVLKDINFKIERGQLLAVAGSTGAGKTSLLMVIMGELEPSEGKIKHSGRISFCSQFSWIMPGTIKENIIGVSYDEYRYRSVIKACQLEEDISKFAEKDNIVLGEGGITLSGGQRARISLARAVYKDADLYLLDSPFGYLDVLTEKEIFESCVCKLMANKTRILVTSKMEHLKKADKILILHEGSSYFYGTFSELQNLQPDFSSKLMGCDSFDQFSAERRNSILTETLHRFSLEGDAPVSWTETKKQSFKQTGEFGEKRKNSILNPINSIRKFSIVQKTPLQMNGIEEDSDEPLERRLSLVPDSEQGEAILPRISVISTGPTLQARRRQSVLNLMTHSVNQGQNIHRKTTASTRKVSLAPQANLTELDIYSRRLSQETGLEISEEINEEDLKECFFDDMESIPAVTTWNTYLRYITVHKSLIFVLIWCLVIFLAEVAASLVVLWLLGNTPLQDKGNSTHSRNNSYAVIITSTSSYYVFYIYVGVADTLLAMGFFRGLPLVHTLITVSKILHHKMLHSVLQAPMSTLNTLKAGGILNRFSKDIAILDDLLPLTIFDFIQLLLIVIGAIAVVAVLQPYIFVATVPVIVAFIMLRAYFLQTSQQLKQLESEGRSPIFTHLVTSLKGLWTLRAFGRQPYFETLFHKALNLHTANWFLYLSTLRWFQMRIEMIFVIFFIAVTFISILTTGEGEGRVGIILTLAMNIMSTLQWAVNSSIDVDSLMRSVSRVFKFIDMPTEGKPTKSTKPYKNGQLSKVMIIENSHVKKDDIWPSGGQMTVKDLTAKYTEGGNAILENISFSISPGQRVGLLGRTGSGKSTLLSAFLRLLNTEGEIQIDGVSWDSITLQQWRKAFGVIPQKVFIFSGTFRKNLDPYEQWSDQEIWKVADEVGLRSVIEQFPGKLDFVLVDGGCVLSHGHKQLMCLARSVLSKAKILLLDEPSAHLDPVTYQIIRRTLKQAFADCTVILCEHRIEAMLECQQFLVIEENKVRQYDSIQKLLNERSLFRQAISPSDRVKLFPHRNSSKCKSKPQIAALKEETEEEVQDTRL

SMILES | EC50 [µM] | Efficacy
CCN(CC)c1nc(C(N)=O)cc(-c2ccc(OC)c(OC)c2)n1 [Compound 82] | < 1 | ++ (++ corresponds to Efficacy between 100 and 50)
CCN(C)c1nc(C(N)=O)cc(-c2ccccc2)n1 [Compound 7] | 1 to 5 | +++ (+++ corresponds to Efficacy greater than 100)
NC(=O)c1cc(-c2cccc(C(F)(F)F)c2)nc(N2CCCCC2)n1 [Compound 185] | > 5 | + (+ corresponds to Efficacy less than 50)
Cc1ccc(-c2cc(C(N)=O)nc(N3CCCCC3)n2)cc1 [Compound 221] | 1 to 5 | + (+ corresponds to Efficacy less than 50)
COc1cccc(-c2cc(C(N)=O)nc(N)n2)c1 [Compound 191] | > 5 | + (+ corresponds to Efficacy less than 50)
COc1ccc(S(=O)(=O)N2CCN(c3nc(C(N)=O)cc(-c4ccccc4)n3)CC2)cc1 [Compound 195] | > 5 | ++ (++ corresponds to Efficacy between 100 and 50)
CCN(CCO)c1nc(C(N)=O)cc(-c2cccc(OC)c2)n1 [Compound 123] | > 5 | + (+ corresponds to Efficacy less than 50)
NC(=O)c1cc(-c2ccccc2)nc(N2CCSC2)n1 [Compound 169] | > 5 | +++ (+++ corresponds to Efficacy greater than 100)
CN(C)C(=O)c1cc(-c2ccccc2)nc(NCc2ccco2)n1 [Compound 128] | > 5 | + (+ corresponds to Efficacy less than 50)
COc1ccc(-c2cc(C(N)=O)nc(N3CCCCC3)n2)cc1OC [Compound 124] | 1 to 5 | +++ (+++ corresponds to Efficacy greater than 100)
N#Cc1ccc(-c2cc(C(N)=O)nc(N3CCCCC3)n2)cc1 [Compound 130] | > 5 | + (+ corresponds to Efficacy less than 50)
CCCN(CC1CC1)c1nc(C(N)=O)cc(-c2ccc(OC)cc2)n1 [Compound 197] | 1 to 5 | ++ (++ corresponds to Efficacy between 100 and 50)
Cc1ccccc1-c1cc(C(N)=O)nc(N2CCCCC2)n1 [Compound 114] | 1 to 5 | +++ (+++ corresponds to Efficacy greater than 100)
CCN(CCO)c1nc(C(N)=O)cc(-c2ccccc2)n1 [Compound 4] | > 5 | +++ (+++ corresponds to Efficacy greater than 100)
CCN(CCc1ccccn1)c1nc(C(N)=O)cc(-c2ccccc2)n1 [Compound 218] | 1 to 5 | +++ (+++ corresponds to Efficacy greater than 100)
CCCCN(CC)c1nc(C(N)=O)cc(-c2ccccc2)n1 [Compound 121] | 1 to 5 | +++ (+++ corresponds to Efficacy greater than 100)
NC(=O)c1cc(-c2ccccc2)nc(N2CCC(O)(Cc3ccccc3)CC2)n1 [Compound 143] | > 5 | + (+ corresponds to Efficacy less than 50)
NC(=O)c1cc(-c2ccccc2)nc(N2CCCC(CO)C2)n1 (stereo not shown) [Compound 43] | > 5 | + (+ corresponds to Efficacy less than 50)
NC(=O)c1cc(-c2ccccc2)nc(NCc2ccccc2)n1 [Compound 126] | > 5 | ++ (++ corresponds to Efficacy between 100 and 50)
CCN(CC)c1nc(C(N)=O)cc(-c2ccc(OC)cc2OC)n1 [Compound 172] | 1 to 5 | +++ (+++ corresponds to Efficacy greater than 100)
COc1ccc(-c2cc(C(N)=O)nc(N3CCCCCC3)n2)cc1 [Compound 78] | 1 to 5 | ++ (++ corresponds to Efficacy between 100 and 50)
CC(C)CN(C)c1nc(C(N)=O)cc(-c2ccccc2)n1 [Compound 159] | 1 to 5 | +++ (+++ corresponds to Efficacy greater than 100)
CCN(CC)c1nc(C(N)=O)cc(-c2csc3ccccc23)n1 [Compound 214] | < 1 | ++ (++ corresponds to Efficacy between 100 and 50)

Second part, led by results:

EC50 [µM] | SMILES | Efficacy
> 5 | CCNc1nc(C(N)=O)cc(-c2ccc(OC)cc2)n1 [Compound 102] | ++ (++ corresponds to Efficacy between 100 and 50)
> 5 | NC(=O)c1cc(-c2ccccc2)nc(-n2cccn2)n1 [Compound 57] | + (+ corresponds to Efficacy less than 50)
< 1 | CCN(CC)c1nc(C(N)=O)cc(-c2ccccc2Oc2ccccc2)n1 [Compound 24] | ++ (++ corresponds to Efficacy between 100 and 50)
1 to 5 | COc1ccc(C2(CNc3nc(C(N)=O)cc(-c4ccccc4)n3)CCCC2)cc1OC [Compound 187] | ++ (++ corresponds to Efficacy between 100 and 50)
< 1 | CCN(CC)c1nc(C(N)=O)cc(-c2cc(C)cs2)n1 [Compound 66] | +++ (+++ corresponds to Efficacy greater than 100)
1 to 5 | CCCN(CC)c1nc(C(N)=O)cc(-c2ccccc2)n1 [Compound 34] | +++ (+++ corresponds to Efficacy greater than 100)
1 to 5 | C#CCN(C)c1nc(C(N)=O)cc(-c2ccccc2)n1 [Compound 204] | ++ (++ corresponds to Efficacy between 100 and 50)
1 to 5 | CC(C)CN(CC(C)C)c1nc(C(N)=O)cc(-c2ccccc2)n1 [Compound 196] | + (+ corresponds to Efficacy less than 50)
1 to 5 | NC(=O)c1cc(-c2ccccc2)nc(N2CCCCC2)n1 [Compound 16] | ++ (++ corresponds to Efficacy between 100 and 50)
> 5 | NC(=O)c1cc(-c2ccccc2)nc(-n2ccnc2)n1 [Compound 58] | + (+ corresponds to Efficacy less than 50)
1 to 5 | NC(=O)c1cc(-c2ccccc2)nc(N2CCSCC2)n1 [Compound 33] | +++ (+++ corresponds to Efficacy greater than 100)
> 5 | N#Cc1cccc(-c2cc(C(N)=O)nc(N3CCCCC3)n2)c1 [Compound 111] | ++ (++ corresponds to Efficacy between 100 and 50)
> 5 | COc1ccc(C2(CNc3nc(C(N)=O)cc(-c4ccccc4)n3)CC2)cc1OC [Compound 132] | +++ (+++ corresponds to Efficacy greater than 100)
> 5 | Cc1ccc(-c2cc(C(N)=O)nc(N3CCCCC3)n2)cc1C [Compound 40] | ++ (++ corresponds to Efficacy between 100 and 50)
< 1 | CNC(=O)c1cc(-c2ccccc2)nc(NC)n1 [Compound 103] | + (+ corresponds to Efficacy less than 50)
1 to 5 | CC(C)CCN(CCC(C)C)c1nc(C(N)=O)cc(-c2ccccc2)n1 [Compound 104] | + (+ corresponds to Efficacy less than 50)
> 5 | Cc1cc(-c2cc(C(N)=O)nc(N3CCCCC3)n2)ccc1F [Compound 175] | ++ (++ corresponds to Efficacy between 100 and 50)
1 to 5 | CCN(CC)c1nc(C(N)=O)cc(-c2cc3ccccc3s2)n1 [Compound 81] | +++ (+++ corresponds to Efficacy greater than 100)
> 5 | NC(=O)c1cc(-c2ccccc2)nc(NCC2CC2)n1 [Compound 27] | ++ (++ corresponds to Efficacy between 100 and 50)
1 to 5 | CN(Cc1ccco1)c1nc(C(N)=O)cc(-c2ccccc2)n1 [Compound 162] | ++ (++ corresponds to Efficacy between 100 and 50)
1 to 5 | CCOC(=O)CN(C)c1nc(C(N)=O)cc(-c2ccccc2)n1 [Compound 209] | ++ (++ corresponds to Efficacy between 100 and 50)
